Results: patent US7084151B2 (Ligand Pharmaceuticals Incorporated, priority 2002, dated 2006)
Read-outs that look alike come from different tables or passages of the source.

Columns and labels:
PR [1] = target: T1, PR (Homo sapiens, UniProt P06401); test: Cotransfection assay, PR agonist activity in CV-1 cells; format: cell-based; conditions: for Emax: CV-1, read-out: PR Agonist CV-1 Cells Efficacy
T1 construct: expressed in transfected cells; host or cells: CV-1 cells (African green monkey kidney fibroblasts), transiently transfected
T1 sequence (P06401 1-933): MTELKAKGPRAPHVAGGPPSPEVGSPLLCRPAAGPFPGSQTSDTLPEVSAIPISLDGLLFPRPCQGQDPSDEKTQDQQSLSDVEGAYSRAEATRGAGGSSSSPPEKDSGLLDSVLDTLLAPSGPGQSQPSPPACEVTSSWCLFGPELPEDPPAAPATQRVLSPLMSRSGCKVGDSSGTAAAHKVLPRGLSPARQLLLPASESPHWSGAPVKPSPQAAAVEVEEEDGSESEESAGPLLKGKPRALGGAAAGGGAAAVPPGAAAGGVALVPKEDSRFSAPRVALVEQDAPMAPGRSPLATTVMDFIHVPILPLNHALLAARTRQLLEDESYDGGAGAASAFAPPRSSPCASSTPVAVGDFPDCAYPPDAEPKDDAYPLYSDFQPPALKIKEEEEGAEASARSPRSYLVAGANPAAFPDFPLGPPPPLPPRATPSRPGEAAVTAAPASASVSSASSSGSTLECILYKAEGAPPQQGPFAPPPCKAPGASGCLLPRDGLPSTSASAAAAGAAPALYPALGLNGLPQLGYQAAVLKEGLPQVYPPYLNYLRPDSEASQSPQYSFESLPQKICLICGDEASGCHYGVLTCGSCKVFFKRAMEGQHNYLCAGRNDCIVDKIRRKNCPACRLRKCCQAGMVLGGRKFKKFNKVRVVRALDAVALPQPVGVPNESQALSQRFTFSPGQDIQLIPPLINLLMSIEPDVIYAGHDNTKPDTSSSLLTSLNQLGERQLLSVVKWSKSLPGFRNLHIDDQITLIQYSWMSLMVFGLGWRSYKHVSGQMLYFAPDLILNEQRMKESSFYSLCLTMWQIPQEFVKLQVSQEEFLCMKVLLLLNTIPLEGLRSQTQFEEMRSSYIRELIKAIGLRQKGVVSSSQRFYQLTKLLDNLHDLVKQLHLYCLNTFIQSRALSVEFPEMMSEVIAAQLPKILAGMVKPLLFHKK
Description: (§1) Briefly, the cotransfection assays were carried out in CV-1 cells (African green monkey kidney fibroblasts), which were transiently transfected, by the standard calcium phosphate coprecipitation procedure (Berger, et al., J. Steroid Biochem. Mol. Bio. 1992, 41, 733–738) with the Plasmid containing receptor, MTV-LUC reporter, pRS-β-Gal, and filler DNA (Rous sarcoma virus chloramphenicol acetyltransferase). […] All the cotransfection experiments were carried out in 96-well plates by automation (Beckman Biomomek automated workstation).

hPR-A = target: T2, hPR-A (Homo sapiens, UniProt P06401); test: Receptor competitive binding assay; conditions: read-out: PR Binding Ki
T2 sequence (P06401 1-769 isoform P06401-2): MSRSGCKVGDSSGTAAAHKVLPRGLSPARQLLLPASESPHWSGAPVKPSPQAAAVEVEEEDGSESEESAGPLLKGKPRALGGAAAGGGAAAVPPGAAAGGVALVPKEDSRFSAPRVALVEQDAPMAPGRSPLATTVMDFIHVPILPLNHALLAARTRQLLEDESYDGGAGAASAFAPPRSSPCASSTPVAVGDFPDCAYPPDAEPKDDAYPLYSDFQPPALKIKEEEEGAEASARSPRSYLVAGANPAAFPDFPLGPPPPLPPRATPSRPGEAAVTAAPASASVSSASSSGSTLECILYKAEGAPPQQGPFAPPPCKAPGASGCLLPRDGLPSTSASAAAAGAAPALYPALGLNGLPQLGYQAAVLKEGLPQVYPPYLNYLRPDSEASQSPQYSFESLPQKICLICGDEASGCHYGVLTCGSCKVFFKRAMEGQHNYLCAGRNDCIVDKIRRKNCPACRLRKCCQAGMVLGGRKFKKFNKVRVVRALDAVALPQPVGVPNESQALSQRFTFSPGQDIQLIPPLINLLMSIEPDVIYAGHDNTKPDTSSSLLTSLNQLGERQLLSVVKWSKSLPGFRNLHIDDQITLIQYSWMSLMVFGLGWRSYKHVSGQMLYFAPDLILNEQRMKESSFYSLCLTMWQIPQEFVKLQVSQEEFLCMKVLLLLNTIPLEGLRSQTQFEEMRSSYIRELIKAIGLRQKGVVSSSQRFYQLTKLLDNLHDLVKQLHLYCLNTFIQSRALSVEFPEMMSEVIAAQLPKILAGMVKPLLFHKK
Excerpt: The preparation of receptor binding assays for hPR-A was described in literature (Pathirana, et al., Mol. Pharm. 1995, 47, 630–635.)

PR [2] = target: T1, PR; test: Cotransfection assay, PR antagonist activity in CV-1 cells; format: cell-based; conditions: for Emax: percent maximal response relative to reference antagonist, read-out: PR Antagonist CV-1 Cells Efficacy
Description: as §1

[3] = CV-1 cells, MTV-LUC reporter, read-out: PR Agonist CV-1 Cells Potency (EC50)
[4] = CV-1 cells, MTV-LUC reporter, read-out: PR Antagonist CV-1 Cells Potency (IC50)

Compound	melting point [°C]	EC50 (PR [1]) [nM]	Emax (PR [1]) [%]	Ki (hPR-A) [nM]	IC50 (PR [2]) [nM]	Emax (PR [2]; CV-1 cells) [%]	EC50 (PR [1]; [3]) [nM]	IC50 (PR [2]; [4]) [nM]	PR Agonist CV-1 Cells Efficacy (PR [1]; CV-1 cells, percent maximal response relative to progesterone)
CC1=CC(C)(C)Nc2ccc3c(c21)C(=C1SCCCS1)Oc1ccc(F)cc1-3 [Compound 10, 9-Fluoro-5-(1,3-dithia-2-cyclohexylidene)-1,2-dihydro-2,2,4-trimethyl-5H-chromeno[3,4-f]quinoline]	120 to 122	2	144	6.3	> 1000	< 20	–	–	–
COc1ccc2c(c1)OC(=C1SCCCS1)c1c-2ccc2c1C(C)=CC(C)(C)N2 [Compound 13, 8-methoxy-5-(1,3-dithia-2-cyclohexylidene)-1,2-dihydro-2,2,4-trimethyl-5H-chromeno[3,4-f]quinoline]	–	–	56	14	–	< 20	32	> 1000	–
CC1=CC(C)(C)Nc2ccc3c(c21)C(=C1SCCCS1)Oc1c(F)cc(F)cc1-3 [Compound 15, 7,9-difluoro-5-(1,3-dithia-2-cyclohexylidene)-1,2-dihydro-2,2,4-trimethyl-5H-chromeno[3,4-f]quinoline]	–	–	155	3.7	–	< 20	5.3	> 1000	–
CC1=CC(C)(C)Nc2ccc3c(c21)C(=C1SCCCS1)Oc1c(F)cccc1-3 [Compound 17, 7-fluoro-5-(1,3-dithia-2-cyclohexylidene)-1,2-dihydro-2,2,4-trimethyl-5H-chromeno[3,4-f]quinoline]	–	–	107	4.3	–	< 20	11	> 1000	–
CC1=CC(C)(C)Nc2ccc3c(c21)C(=C1CCCCC1)Oc1c(F)cccc1-3 [Compound 19, 7-fluoro-5-cyclohexylidene-1,2-dihydro-2,2,4-trimethyl-5H-chromeno[3,4-f]quinoline]	–	–	48	74	–	–	38	–	–
CC1=CC(C)(C)Nc2ccc3c(c21)C(=C1CCCCC1)Oc1c(F)cc(F)cc1-3 [Compound 20, 7,9-difluoro-5-cyclohexylidene-1,2-dihydro-2,2,4-trimethyl-5H-chromeno[3,4-f]quinoline]	–	–	82	39	–	< 20	16	> 1000	–
CC1(C)C=Cc2c(ccc3c2C(=C2SCCCS2)Oc2c(F)cccc2-3)N1 [Compound 21, 7-fluoro-5-(1,3-dithia-2-cyclohexylidene)-1,2-dihydro-2,2-dimethyl-5H-chromeno[3,4-f]quinoline]	–	–	45	–	–	–	32	–	–
CC1=CC(C)(C)Nc2ccc3c(c21)C(=C1C=CCCC1)Oc1c(F)cccc1-3 [Compound 23, 7-fluoro-5-(2-cyclohexenylidene)-1,2-dihydro-2,2,4-trimethyl-5H-chromeno[3,4-f]quinoline]	–	–	70	22	–	< 20	35	> 1000	–
CC(=O)[C@H]1CC[C@H]2[C@@H]3CCC4=CC(=O)CC[C@]4(C)[C@H]3CC[C@]12C [Prog, progesterone, reference compound]	–	–	100	–	–	< 20	–	–	–
CC#C[C@]1(O)CC[C@H]2[C@@H]3CCC4=CC(=O)CCC4=C3[C@@H](c3ccc(N(C)C)cc3)C[C@@]21C [RU486, mifepristone, reference compound]	–	–	–	–	–	–	–	–	na (na = not active (i.e. efficacy of <20 and potency of >1,000))
CN(C)c1ccc([C@H]2C[C@]3(C)[C@@H](CC[C@]3(O)CCCO)[C@@H]3CCC4=CC(=O)CCC4=C32)cc1 [ZK299, reference compound]	–	–	< 20	–	–	99	–	–	–
